Experimental data from patent US20260274894A1, “CYCLIC POLYPEPTIDE COMPOUND AND USE THEREOF” (BIVISION PHARMACEUTICALS, INC., priority 2023, published 2026).
Numbered stars: 1 amine (or outer) side, 2 acyl side, 3 side chain; on linkers, the order of the positions; unused ones are H or OH. Bridge positions count the residues as written; N and C are the ends. Square brackets hold non-standard residues; d marks the D form. Side chains are listed from the residue outwards. Peptide text beside a SMILES is read from it. * marks the point of attachment. ξ: configuration not given here. TBMB(SCH2CH2NH-DOTA) = O=C(O)CN1CCN(CC(=O)O)CCN(CC(=O)NCCSCc2cc(C[*:1])cc(C[*:2])c2)CCN(CC(=O)O)CC1; NH(CH2)2O(CH2)2NHDOTA = O=C(O)CN1CCN(CC(=O)O)CCN(CC(=O)NCCOCCN*)CCN(CC(=O)O)CC1; X4 = O=C(O)CN1CCN(CC(=O)O)CCN(CC(=O)N2CCc3cc(C(=O)*)ccc3C2)CCN(CC(=O)O)CC1; X5 = CCCCCC(=O)N[C@@H](CSCc1cccc(C[*:2])c1)C(=O)N1CCC[C@@H](NC(=O)[*:1])C1; X3 = O=C(O)CN1CCN(CC(=O)O)CCN(CC(=O)NCCOCCOCCOCCN*)CCN(CC(=O)O)CC1; DOTA = O=C(O)CN1CCN(CC(=O)O)CCN(CC(=O)*)CCN(CC(=O)O)CC1; Azetidine3carboxylic = O=C(C1CN([*:1])C1)[*:2]; γGlu = O=C(O)[C@H](CCC(=O)[*:2])N[*:1]; βAsp = O=C(O)[C@H](CC(=O)[*:2])N[*:1]; mXylylene = c1cc(C[*:1])cc(C[*:2])c1; ξγGlu = O=C(O)C(CCC(=O)[*:2])N[*:1]; Ethylenediamine = C(CN[*:2])N[*:1]; Cha = N[C@@H](CC1CCCCC1)C(=O)O; Decanoyl = CCCCCCCCCC(=O)*; Octanoyl = CCCCCCCC(=O)*; Hexanoyl = CCCCCC(=O)*; ξP = O=C(O)C1CCCN1; ξC = NC(CS)C(=O)O

These compounds were tested against T1, FAP protein (Homo sapiens, UniProt Q12884) (assay: Biacore test of compound affinity to FAP protein). Details: Biacore 8K, SA chip, 15° C., 1:1 binding model.
T1 construct: purchased Sinobiological
T1 sequence (Q12884 1-760): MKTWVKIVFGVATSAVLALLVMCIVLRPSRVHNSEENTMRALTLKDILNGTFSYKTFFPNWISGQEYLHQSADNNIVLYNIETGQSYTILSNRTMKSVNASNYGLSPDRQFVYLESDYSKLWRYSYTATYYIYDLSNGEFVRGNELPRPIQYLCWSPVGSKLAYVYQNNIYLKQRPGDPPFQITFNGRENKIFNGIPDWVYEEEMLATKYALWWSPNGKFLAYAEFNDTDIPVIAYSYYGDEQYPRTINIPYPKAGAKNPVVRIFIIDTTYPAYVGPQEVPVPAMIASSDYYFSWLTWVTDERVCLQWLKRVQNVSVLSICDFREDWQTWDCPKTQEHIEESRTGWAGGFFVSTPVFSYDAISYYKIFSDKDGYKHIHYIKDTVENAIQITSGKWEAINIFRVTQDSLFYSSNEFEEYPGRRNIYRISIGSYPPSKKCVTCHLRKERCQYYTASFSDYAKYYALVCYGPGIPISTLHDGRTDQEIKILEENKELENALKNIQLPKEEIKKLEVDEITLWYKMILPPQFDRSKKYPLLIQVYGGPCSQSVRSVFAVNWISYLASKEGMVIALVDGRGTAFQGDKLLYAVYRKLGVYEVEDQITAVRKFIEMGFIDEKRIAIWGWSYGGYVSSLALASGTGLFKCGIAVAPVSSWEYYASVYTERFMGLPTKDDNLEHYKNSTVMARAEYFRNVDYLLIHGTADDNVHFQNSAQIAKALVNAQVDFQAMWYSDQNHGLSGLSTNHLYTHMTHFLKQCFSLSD
Description: The Biacore 8K (Cytiva) instrument was used to detect ligand binding of the FAP protein (Sinobiological). FAP protein was captured on the SA chip. […] The sensor surface was conditioned by injecting 1M NaCl three consecutive times in 50 mM NaOH. After each ligand injection, additional cleaning was performed using isopropanol in 1M NaCl and 50 mM NaOH (flow path 1 and 2, flow rate of 10 μL/min, injection time of 60 s). […] The analyte was run under the following conditions: analysis temperature of 15° C., analysis step=all set to LMW kinetics; cycle type=single cycle (contact time of 90 s, dissociation time of 1800 s, flow rate of 30 μL/min, flow channels 1 and 2); channel detection=2-1. Data was evaluated using the Biacore Insight Evaluation Software, and the data were fitted to a 1:1 binding model. The Biacore results are shown in Table 2 below: pKD=−Log KD, where KD is the binding affinity of the compound to the FAP protein as measured by Biacore.

`CCCCCC(=O)N[C@H]1CSCc2cccc(c2)CSC[C@@H](C(=O)N[C@@H](CCC(=O)NCCNC(=O)CN2CCN(CC(=O)O)CCN(CC(=O)O)CCN(CC(=O)O)CC2)C(=O)O)NC(=O)[C@H](Cc2ccccc2)NC(=O)[C@H](CCC(N)=O)NC(=O)[C@H]([C@@H](C)O)NC(=O)[C@@H]2CCCN2C(=O)C2CN(C2)C1=O` (single isomer, unassigned) [^175Lu-JHDC23] was tested, and the “pKD (FAP)” value was “B (B: 7<pKD<8)”.

Same assay, conditions: Biacore 8K, SA chip, 15° C., 1:1 binding model; read-out: pKD (FAP) (converted)

First: CCCCCC(=O)N[C@H]1CSCc2cccc(c2)CSCC(C(=O)N[C@@H](CCC(=O)NCCOCCNC(=O)CN2CCN(CC(=O)O)CCN(CC(=O)O)CCN(CC(=O)O)CC2)C(=O)O)NC(=O)[C@H](CC2CCCCC2)NC(=O)[C@H](CCC(N)=O)NC(=O)[C@H]([C@@H](C)O)NC(=O)C2CCCN2C(=O)C2CN(C2)C1=O (stereo partly drawn) [JHDC05, Hex[Cys(3MeBn)-hhy39-Pro-Thr-Gln-hhy34-Cys]-Glu-(DAPEG2-DOTA)-OH] (Hexanoyl-C[Azetidine3carboxylic][ξP]TQ[Cha][ξC]E(NH(CH2)2O(CH2)2NHDOTA)-OH; linker 1-7 via mXylylene)
Second: CCCCCC(=O)N[C@H]1CSCc2cccc(c2)CSCC(C(=O)N[C@@H](CCC(=O)NCCOCCNC(=O)CN2CCN(CC(=O)O)CCN(CC(=O)O)CCN(CC(=O)O)CC2)C(=O)O)NC(=O)[C@H](CC2CCCCC2)NC(=O)CNC(=O)[C@H](CCC(N)=O)NC(=O)[C@H]([C@@H](C)O)NC(=O)C2CCCN2C(=O)C2CN(C2)C1=O (stereo partly drawn) [JHDC09, Hex[Cys(3MeBn)-hhy39-Pro-Thr-Gln-Gly-hhy34-Cys]-Glu-(DAPEG2-DOTA)-OH] (Hexanoyl-C[Azetidine3carboxylic][ξP]TQG[Cha][ξC]E(NH(CH2)2O(CH2)2NHDOTA)-OH; linker 1-8 via mXylylene)
The Kd of the first is lower: under 10 nM for the first, 10 to 100 nM for the second.

Compared with `CCCCCC(=O)N[C@H]1CSCc2cccc(c2)CSCC(C(=O)N[C@@H](CCC(=O)NCCOCCNC(=O)CN2CCN(CC(=O)O)CCN(CC(=O)O)CCN(CC(=O)O)CC2)C(=O)O)NC(=O)[C@H](Cc2ccccc2)NC(=O)[C@H](CCC(N)=O)NC(=O)[C@H]([C@@H](C)O)NC(=O)C2CCCN2C(=O)C2CN(C2)C1=O` (stereo partly drawn) [JHDC06, Hex[Cys(3MeBn)-hhy39-Pro-Thr-Gln-Phe-Cys]-Glu-(DAPEG2-DOTA)-OH] (Hexanoyl-C[Azetidine3carboxylic][ξP]TQF[ξC]E(NH(CH2)2O(CH2)2NHDOTA)-OH; linker 1-7 via mXylylene), `CCCCCC(=O)N[C@H]1CSCc2cccc(c2)CSC[C@@H](C(=O)NCCOCCNC(=O)CN2CCN(CC(=O)O)CCN(CC(=O)O)CCN(CC(=O)O)CC2)NC(=O)[C@H](Cc2ccccc2)NC(=O)[C@H](CCC(N)=O)NC(=O)[C@H]([C@@H](C)O)NC(=O)[C@@H]2CCCN2C(=O)C2CN(C2)C1=O` [JHDC10, Hex[Cys(3MeBn)-hhy39-Pro-Thr-Gln-Phe-Cys]-DAPEG2-DOTA] (Hexanoyl-C[Azetidine3carboxylic]PTQFC-{NH(CH2)2O(CH2)2NHDOTA}; linker 1-7 via mXylylene) is higher in Kd: under 10 nM for the first, 10 to 100 nM for the second.

`CCCCCC(=O)N[C@H]1CSCc2cccc(c2)CSCC(C(=O)N[C@@H](CCCCNC(=O)CN2CCN(CC(=O)O)CCN(CC(=O)O)CCN(CC(=O)O)CC2)C(=O)O)NC(=O)[C@H](Cc2ccccc2)NC(=O)[C@H](CCC(N)=O)NC(=O)[C@H]([C@@H](C)O)NC(=O)C2CCCN2C(=O)N[C@@H]2CCCN(C2)C1=O` (stereo partly drawn) [JHDC07, Hex[Cys(3MeBn)-hhy44(NH)—CO-Pro-Thr-Gln-Phe-Cys]-Lys-(DOTA)-OH] ([ξP]TQF[ξC]K(DOTA)-OH; linker N-5 via X5) and `CCCCCC(=O)N[C@H]1CSCc2cccc(c2)CSCC(C(=O)N[C@@H](CCC(=O)NCCNC(=O)c2ccc3c(c2)CCN(C(=O)CN2CCN(CC(=O)O)CCN(CC(=O)O)CCN(CC(=O)O)CC2)C3)C(=O)O)NC(=O)[C@H](Cc2ccccc2)NC(=O)[C@H](CCC(N)=O)NC(=O)[C@H]([C@@H](C)O)NC(=O)C2CCCN2C(=O)C2CN(C2)C1=O` (stereo partly drawn) [JHDC25, Hex[Cys(3MeBn)-hhy39-Pro-Thr-Gln-Phe-Cys]-Glu-(EDA-hhy02-DOTA)-OH] (Hexanoyl-C[Azetidine3carboxylic][ξP]TQF[ξC]E([Ethylenediamine-X4])-OH; linker 1-7 via mXylylene) fall in the same range of Kd: 10 to 100 nM for the first, 10 to 100 nM for the second.

`CCCCCC(=O)N[C@H]1CCCCn2cc(nn2)CSC[C@@H](C(=O)N[C@@H](CCCCNC(=O)COCCNC(=O)CN2CCN(CC(=O)O)CCN(CC(=O)O)CCN(CC(=O)O)CC2)C(=O)O)NC(=O)[C@H](Cc2ccccc2)NC(=O)[C@H](CCC(N)=O)NC(=O)[C@H]([C@@H](C)O)NC(=O)[C@@H]2CCCN2C(=O)C2CN(C2)C1=O` [JHDC12, Hex[2AHA(Triazole)-hhy39-Pro-Thr-Gln-Phe-CSMC]-Lys-(AEAA-DOTA)-OH] and `CCCCCC(=O)N[C@H]1CSCc2cccc(c2)CSCC(C(=O)N[C@@H](CCC(=O)NCCOCCOCCOCCNC(=O)CN2CCN(CC(=O)O)CCN(CC(=O)O)CCN(CC(=O)O)CC2)C(=O)O)NC(=O)[C@H](CC2CCCCC2)NC(=O)[C@H](CCC(N)=O)NC(=O)[C@H]([C@@H](C)O)NC(=O)C2CCCN2C(=O)C2CN(C2)C1=O` (stereo partly drawn) [JHDC16, Hex[Cys(3MeBn)-hhy39-Pro-Thr-Gln-hhy34-Cys]-Glu-(DAPEG4-DOTA)-OH] (Hexanoyl-C[Azetidine3carboxylic][ξP]TQ[Cha][ξC]E(X3)-OH; linker 1-7 via mXylylene) fall in the same range of Kd: 10 to 100 nM for the first, 10 to 100 nM for the second.

`CCCCCC(=O)N[C@H]1CSCc2cccc(c2)CSCC(C(=O)N[C@@H](CCC(=O)NCCOCCNC(=O)CN2CCN(CC(=O)O)CCN(CC(=O)O)CCN(CC(=O)O)CC2)C(=O)O)NC(=O)CNC(=O)[C@H](CC2CCCCC2)NC(=O)[C@H](CCC(N)=O)NC(=O)[C@H]([C@@H](C)O)NC(=O)C2CCCN2C(=O)C2CN(C2)C1=O` (stereo partly drawn) [JHDC17, Hex[Cys(3MeBn)-hhy39-Pro-Thr-Gln-hhy34-Gly-Cys]-Glu-(DAPEG2-DOTA)-OH] (Hexanoyl-C[Azetidine3carboxylic][ξP]TQ[Cha]G[ξC]E(NH(CH2)2O(CH2)2NHDOTA)-OH; linker 1-8 via mXylylene) and `CCCCCCCCCC(=O)N[C@H]1CSCc2cccc(c2)CSC[C@@H](C(=O)N[C@@H](CCC(=O)N[C@@H](CCCNC(=N)N)C(=O)NCC(=O)N[C@@H](CC(=O)NCCNC(=O)CN2CCN(CC(=O)O)CCN(CC(=O)O)CCN(CC(=O)O)CC2)C(=O)O)C(=O)O)NC(=O)[C@H](CC2CCCCC2)NC(=O)[C@H](CCC(N)=O)NC(=O)[C@H]([C@@H](C)O)NC(=O)[C@@H]2CCCN2C(=O)C2CN(C2)C1=O` [JHDC19, Dec[Cys(3MeBn)-hhy39-Pro-Thr-Gln-hhy34-Cys]-Glu-(Arg-Gly-Asp(EDA-DOTA))-OH] (Decanoyl-C[Azetidine3carboxylic]PTQ[Cha]C[γGlu]RG[βAsp]-{Ethylenediamine-DOTA}; linker 1-7 via mXylylene) fall in the same range of Kd: 10 to 100 nM for the first, 10 to 100 nM for the second.

`CCCCCCCCCC(=O)N[C@H]1CSCc2cccc(c2)CSC[C@@H](C(=O)N[C@@H](CCC(=O)N[C@@H](CCCNC(=N)N)C(=O)NCC(=O)N[C@@H](CC(=O)NCCNC(=O)CN2CCN(CC(=O)O)CCN(CC(=O)O)CCN(CC(=O)O)CC2)C(=O)O)C(=O)O)NC(=O)[C@H](Cc2ccccc2)NC(=O)[C@H](CCC(N)=O)NC(=O)[C@H]([C@@H](C)O)NC(=O)[C@@H]2CCCN2C(=O)C2CN(C2)C1=O` [JHDC18, Dec[Cys(3MeBn)-hhy39-Pro-Thr-Gln-Phe-Cys]-Glu-(Arg-Gly-Asp(EDA-DOTA))-OH] (Decanoyl-C[Azetidine3carboxylic]PTQFC[γGlu]RG[βAsp]-{Ethylenediamine-DOTA}; linker 1-7 via mXylylene) and `CCCCCCCC(=O)N[C@H]1CSCc2cc(CSCCNC(=O)CN3CCN(CC(=O)O)CCN(CC(=O)O)CCN(CC(=O)O)CC3)cc(c2)CSC[C@@H](C(=O)NC(CCC(=O)N[C@@H](CCCNC(=N)N)C(=O)NCC(=O)N[C@@H](CC(N)=O)C(=O)O)C(=O)O)NC(=O)[C@H](CC2CCCCC2)NC(=O)[C@H](CCC(N)=O)NC(=O)[C@H]([C@@H](C)O)NC(=O)C2CCCN2C(=O)C2CN(C2)C1=O` (stereo partly drawn) [JHDC21, Oct[Cys(tMeBn-DOTA-AET)-hhy39-Pro-Thr-Gln-hhy34-Cys]-Glu-(Arg-Gly-Asp(NH2))-OH] (Octanoyl-C[Azetidine3carboxylic][ξP]TQ[Cha]C[ξγGlu]RGN-OH; linker 1-7 via TBMB(SCH2CH2NH-DOTA)) fall in the same range of Kd: 10 to 100 nM for the first, 10 to 100 nM for the second.
